Data reported in patent US11161864B2, “Sting agonists” (Venenum Biodesign, LLC, priority 2018, dated 2021).

Target: wild-type (WT) truncated human STING protein, amino acids 155-379 (Homo sapiens (Human), UniProt Q86WV6, H232R)
Test: Human WT STING [3H] 2′,3′-cGAMP scintillation proximity competition binding assay
Settings: read-out: Human WT Binding IC50
Text: (§1) A human STING [^3H] 2′,3′-cGAMP scintillation proximity competition binding assay was utilized to detect binding of compounds to STING protein. […] The protein encoding plasmid contained a HIS tag, followed by an Avi tag and then a SUMO tag, which were followed by the STING coding sequence within the pET-28a (+) vector. The plasmid was transfected into a BL21 (DE3)/BirA E. coli co-expression strain. Protein was purified from the bacterial lysate using a cobalt-affinity column. The purified protein was dialyzed against PBS and then 20% glycerol was added prior to storage at −80° C.
(§2) 2′,3′-cGAMP in assay buffer (50 mM Tris pH 7.5, 100 mM NaCl, 0.1% Fatty Acid Free BSA). Test compounds (2.5 μL) were added to the plate first followed by a 25 μL mixture of STING protein, streptavidin PVT SPA beads (Perkin Elmer) and 10 μL [^3H] 2′,3′-cGAMP. Plates were incubated at room temperature for 18 hrs and read on a Wallac MicroBeta TriLux (Perkin Elmer).

Sequence of wild-type (WT) truncated human STING protein, amino acids 155-379 (Q86WV6 155-379 H232R): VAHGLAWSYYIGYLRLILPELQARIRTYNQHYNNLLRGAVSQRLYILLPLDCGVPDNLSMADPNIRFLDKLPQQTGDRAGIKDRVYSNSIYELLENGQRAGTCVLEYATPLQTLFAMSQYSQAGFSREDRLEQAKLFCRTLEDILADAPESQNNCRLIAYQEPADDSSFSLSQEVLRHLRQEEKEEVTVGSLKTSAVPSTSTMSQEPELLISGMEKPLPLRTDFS

| SMILES | IC50 [µM] |
| --- | --- |
| Nc1nc2c(ncn2[C@@H]2O[C@@H]3COP(=O)(S)OCCn4c(nc5cncnc54)COP(=O)(S)O[C@@H]2[C@H]3F)c(=O)[nH]1 (single isomer, unassigned) [Example 25B] | 10 to 100 |
| Nc1nc2c(ncn2[C@@H]2O[C@@H]3COP(=O)(O)OCCCn4c(nc5cncnc54)COP(=O)(O)O[C@@H]2[C@@H]3O)c(=O)[nH]1 [Example 2, (1R,22R,24R,25R)-24-(2-Amino-6-oxo-6,9-dihydro-1H-purin-9-yl)-3,19,25-trihydroxy-2,4,18,20,23-pentaoxa-710,122,14-tetraaza-3lambda5,19lambda5-diphosphatetracyclo[20.2.1.06,14.08,13]pentacosa-6,8(13),9,11-tetraene-3,19-dione] | 10 to 100 |
| Nc1nc2c(ncn2[C@@H]2O[C@@H]3COP(=O)(S)OCCn4c(nc5cncnc54)COP(=O)(S)O[C@@H]2[C@H]3F)c(=O)[nH]1 (single isomer, unassigned) [Example 25D] | < 1 |
| C[C@H]1Cn2c(nc3cncnc32)COP(=O)(S)O[C@@H]2[C@H](F)[C@@H](COP(=O)(S)O1)O[C@H]2n1cnc2c(=O)[nH]c(N)nc21 (single isomer, unassigned) [Example 33C] | 10 to 100 |

Target: AQ variant of truncated human STING protein, amino acids 155-379 (Homo sapiens (Human), UniProt Q86WV6, G230A/H232R/R293Q)
Test: Human AQ STING [3H] 2′,3′-cGAMP scintillation proximity competition binding assay
Settings: read-out: Human AQ Binding IC50
Text: as §1, §2

Sequence of AQ variant of truncated human STING protein, amino acids 155-379 (Q86WV6 155-379 G230A/H232R/R293Q): as the sequence (Q86WV6 155-379 H232R) above, with G76A, R139Q counted along it

| SMILES | IC50 [µM] |
| --- | --- |
| Nc1nc2c(ncn2[C@@H]2O[C@@H]3COP(=O)(S)OCCn4c(nc5cncnc54)COP(=O)(S)O[C@@H]2[C@@H]3F)c(=O)[nH]1 (single isomer, unassigned) [Example 1A] | < 1 |
| Nc1nc2c(ncn2[C@@H]2O[C@@H]3COP(=O)(O)OCCCn4c(nc5cncnc54)COP(=O)(O)O[C@@H]2[C@@H]3O)c(=O)[nH]1 [Example 2, (1R,22R,24R,25R)-24-(2-Amino-6-oxo-6,9-dihydro-1H-purin-9-yl)-3,19,25-trihydroxy-2,4,18,20,23-pentaoxa-710,122,14-tetraaza-3lambda5,19lambda5-diphosphatetracyclo[20.2.1.06,14.08,13]pentacosa-6,8(13),9,11-tetraene-3,19-dione] | 10 to 100 |
| Nc1nc2c(ncn2[C@@H]2O[C@@H]3COP(=O)(S)OCCn4c(nc5cncnc54)COP(=O)(S)O[C@@H]2[C@H]3F)c(=O)[nH]1 (single isomer, unassigned) [Example 25D] | < 1 |

Target: murine STING protein (amino acids 154-378) (Mus musculus (Mouse), UniProt Q3TBT3)
Test: Murine STING [3H] 2′,3′-cGAMP scintillation proximity competition binding assay
Settings: read-out: Murine Binding IC50

Sequence of murine STING protein (amino acids 154-378) (Q3TBT3 154-378): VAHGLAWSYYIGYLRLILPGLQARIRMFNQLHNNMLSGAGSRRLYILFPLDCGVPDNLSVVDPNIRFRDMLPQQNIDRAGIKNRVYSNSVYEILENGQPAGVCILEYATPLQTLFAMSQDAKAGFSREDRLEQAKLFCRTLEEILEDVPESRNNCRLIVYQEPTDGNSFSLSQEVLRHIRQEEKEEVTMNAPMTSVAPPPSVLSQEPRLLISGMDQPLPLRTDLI

| SMILES | IC50 [nM] |
| --- | --- |
| Nc1nc2c(ncn2[C@@H]2O[C@@H]3COP(=O)(S)OCCn4c(nc5cncnc54)COP(=O)(O)O[C@@H]2[C@@H]3F)c(=O)[nH]1 (single isomer, unassigned) [Example 6B] | < 1000 |
| Nc1nc2c(ncn2[C@@H]2O[C@@H]3COP(=O)(S)OCCn4nc(-c5cncs5)nc4COP(=O)(S)O[C@@H]2[C@@H]3F)c(=O)[nH]1 (single isomer, unassigned) [Example 16C] | < 1000 |
| Nc1nc2c(ncn2[C@@H]2O[C@@H]3COP(=O)(S)OCCn4c(nc5c(=O)[nH]cnc54)COP(=O)(S)O[C@@H]2[C@@H]3F)c(=O)[nH]1 (single isomer, unassigned) [Example 3B] | 1000 to 9990 |
| Nc1nc2c(ncn2[C@@H]2O[C@@H]3COP(=O)(S)OCCn4c(nc5c(=O)[nH]cnc54)COP(=O)(S)O[C@@H]2[C@@H]3F)c(=O)[nH]1 (single isomer, unassigned) [Example 3D] | 1000 to 9990 |
| Nc1nc2c(ncn2[C@@H]2O[C@@H]3COP(=O)(S)OCCn4c(nc5cc(Cl)cnc54)COP(=O)(S)O[C@@H]2[C@@H]3F)c(=O)[nH]1 (single isomer, unassigned) [Example 14A] | < 1000 |
| Nc1nc2c(ncn2[C@@H]2O[C@@H]3COP(=O)(S)OCCn4nc(-c5cncs5)nc4COP(=O)(S)O[C@@H]2[C@@H]3F)c(=O)[nH]1 (single isomer, unassigned) [Example 16A] | < 1000 |
| Nc1nc2c(ncn2[C@@H]2O[C@@H]3COP(=O)(S)OCCn4c(nc5cnccc54)COP(=O)(S)O[C@@H]2[C@@H]3F)c(=O)[nH]1 (single isomer, unassigned) [Example 17C] | < 1000 |
| Nc1nc2c(ncn2[C@@H]2O[C@@H]3COP(=O)(S)OCCn4c(nc5cnc(C6CC6)nc54)COP(=O)(S)O[C@@H]2[C@@H]3F)c(=O)[nH]1 (single isomer, unassigned) [Example 12D] | 1000 to 9990 |
| Nc1nc2c(ncn2[C@@H]2O[C@@H]3COP(=O)(S)OCCn4c(nc5cc(Cl)cnc54)COP(=O)(S)O[C@@H]2[C@@H]3F)c(=O)[nH]1 (single isomer, unassigned) [Example 14C] | < 1000 |
| Nc1nc2c(ncn2[C@@H]2O[C@@H]3COP(=O)(S)OCCn4c(nc5cncnc54)COP(=O)(S)O[C@@H]2[C@@H]3O)c(=O)[nH]1 (single isomer, unassigned) [Example 15D] | < 1000 |
| Nc1nc2c(nc3n2CCOP(=O)(S)OC[C@H]2O[C@@H](n4cnc5c(N)ncnc54)[C@H](OP(=O)(S)OC3)[C@@H]2F)c(=O)[nH]1 (single isomer, unassigned) [Example 23D] | 10000 to 100000 |
| Nc1nc2c(ncn2[C@@H]2O[C@@H]3COP(=O)(S)OCCn4c(nc5cnc(C6CC6)nc54)COP(=O)(S)O[C@@H]2[C@@H]3F)c(=O)[nH]1 (single isomer, unassigned) [Example 12C] | < 1000 |
| Nc1nc2c(ncn2[C@@H]2O[C@@H]3COP(=O)(S)OCCn4nc(-c5ccncc5)nc4COP(=O)(S)O[C@@H]2[C@@H]3F)c(=O)[nH]1 (single isomer, unassigned) [Example 34D] | 1000 to 9990 |
| Nc1nc2c(ncn2[C@@H]2O[C@@H]3COP(=S)(S)OCCn4c(nc5cncnc54)COP(=O)(S)O[C@@H]2[C@@H]3F)c(=O)[nH]1 (stereo partly drawn) [Example 39, (1S,21R,23R,24R)-23-(2-Amino-6-oxo-6,9-dihydro-1H-purin-9-yl)-24-fluoro-3,18-disulfanyl-18-sulfanylidene-2,4,17,19,22-pentaoxa-7,10,12,14-tetraaza-3lambda5,18lambda5-diphosphatetracyclo[19.2.1.06,14.08,13]tetracosa-6,8(13),9,11-tetraen-3-one] | < 1000 |
| Nc1nc2c(ncn2[C@@H]2O[C@@H]3COP(=O)(S)OCCn4c(nc5cncnc54)COP(=O)(S)O[C@@H]2[C@@H]3O)c(=O)[nH]1 (mixture of isomers) [Example 15A, (1R,21R,23R,24R)-23-(2-Amino-6-oxo-6,9-dihydro-1H-purin-9-yl)-24-hydroxy-3,18-disulfanyl-2,4,17,19,22-pentaoxa-7,10,12,14-tetraaza-3lambda5,18lambda5-diphosphatetracyclo[19.2.1.06,14.08,13]tetracosa-6,8,10,12-tetraene-3,18-dione] | < 1000 |
| Nc1nc2c(nnn2[C@@H]2O[C@@H]3COP(=O)(S)OCCn4c(nc5cncnc54)COP(=O)(S)O[C@@H]2[C@@H]3F)c(=O)[nH]1 (single isomer, unassigned) [Example 24A] | < 1000 |
| Nc1nc2c(ncn2[C@@H]2O[C@@H]3COP(=O)(S)OCCn4nc(-c5ccncc5)nc4COP(=O)(S)O[C@@H]2[C@@H]3F)c(=O)[nH]1 (single isomer, unassigned) [Example 34C] | < 1000 |
| Nc1nc2c(ncn2[C@@H]2O[C@@H]3COP(=O)(S)OCCn4nc(-c5ccncc5)nc4COP(=O)(S)O[C@@H]2[C@@H]3F)c(=O)[nH]1 (single isomer, unassigned) [Example 34B] | 1000 to 9990 |
| Nc1nc2c(ncn2[C@@H]2O[C@@H]3COP(=O)(S)OCCn4c(nc5cc(Cl)cnc54)COP(=O)(S)O[C@@H]2[C@@H]3F)c(=O)[nH]1 (single isomer, unassigned) [Example 14D] | < 1000 |
| Nc1nc2c(ncn2[C@@H]2O[C@@H]3COP(=O)(S)OCCn4c(nc5cncnc54)COP(=O)(S)O[C@@H]2[C@@H]3O)c(=O)[nH]1 (single isomer, unassigned) [Example 15C] | < 1000 |
| Nc1nc2c(ncn2[C@@H]2O[C@@H]3COP(=O)(O)OCCn4c(nc5cncnc54)COP(=O)(S)O[C@@H]2[C@@H]3F)c(=O)[nH]1 (single isomer, unassigned) [Example 5A] | < 1000 |
| Nc1nc2c(ncn2[C@@H]2O[C@@H]3COP(=O)(S)OCCn4nc(-c5cncs5)nc4COP(=O)(S)O[C@@H]2[C@@H]3F)c(=O)[nH]1 (single isomer, unassigned) [Example 16D] | < 1000 |
| Nc1nc2c(ncn2[C@@H]2O[C@@H]3COP(=O)(S)OCCn4c(nc5c(=O)[nH]cnc54)COP(=O)(S)O[C@@H]2[C@@H]3F)c(=O)[nH]1 (single isomer, unassigned) [Example 3C] | < 1000 |
| Nc1nc2c(ncn2[C@@H]2O[C@@H]3COP(=O)(S)OCCn4c(nc5cncnc54)COP(=O)(O)O[C@@H]2[C@@H]3F)c(=O)[nH]1 (single isomer, unassigned) [Example 6A] | < 1000 |
| Nc1nc2c(ncn2[C@@H]2O[C@@H]3COP(=O)(O)OCCn4c(nc5cncnc54)COP(=O)(S)O[C@@H]2[C@@H]3F)c(=O)[nH]1 (single isomer, unassigned) [Example 5B] | 1000 to 9990 |
| Nc1nc2c(nnn2[C@@H]2O[C@@H]3COP(=O)(S)OCCn4c(nc5cncnc54)COP(=O)(S)O[C@@H]2[C@@H]3F)c(=O)[nH]1 (single isomer, unassigned) [Example 24C] | < 1000 |
| Nc1nc2ncn([C@@H]3O[C@@H]4COP(=O)(S)OCCn5c(nc6cc(Cl)cnc65)COP(=O)(S)O[C@@H]3[C@@H]4F)c2c(=O)[nH]1 (single isomer, unassigned) [Example 13A] | < 1000 |
| Nc1nc2c(nnn2[C@@H]2O[C@@H]3COP(=O)(S)OCCn4c(nc5cncnc54)COP(=O)(S)O[C@@H]2[C@@H]3F)c(=O)[nH]1 (single isomer, unassigned) [Example 24B] | 10000 to 100000 |
| Nc1nc2c(nnn2[C@@H]2O[C@@H]3COP(=O)(S)OCCn4c(nc5cncnc54)COP(=O)(S)O[C@@H]2[C@@H]3F)c(=O)[nH]1 (single isomer, unassigned) [Example 24D] | < 1000 |
| C[C@H]1COP(=O)(S)OC[C@H]2O[C@@H](n3cnc4c(=O)[nH]c(N)nc43)[C@H](OP(=O)(S)OCc3nc4cncnc4n31)[C@@H]2F (single isomer, unassigned) [Example 20D] | 10000 to 100000 |
